Where a name gives a salt, the structure may show the parent alone.
Each compound was assayed against T1, human platelet PDE5 (Homo sapiens, UniProt O76074) (assay: Method B: PDE-5 Inhibition Scintillation Proximity Assay (SPA) - Human Platelet (modified protocol of Method A)). Conditions: cGMP substrate 50 nM, PDE5 isolated from human platelets.
T1 construct: utilizes PDE5 isolated from human platelets; from tissue; host or cells: human platelets
Format: biochemical
Description: Method B: PDE-5 Inhibition Scintillation Proximity Assay (SPA)—Human Platelet
This method is a modified protocol of Method A.
(§1) The assay measures the inhibition of human platelet PDE5 enzyme activity by a test compound in an in vitro assay that utilizes PDE5 isolated from human platelets. PDE5 catalyzes the hydrolysis of [^3H]cGMP to the 5′ nucleotide [^3H]GMP. [^3H]GMP binds to yttrium silicate SPA beads and is detected by scintillation counting. The inhibition of enzyme activity is calculated relative to total PDE5 activity of uninhibited controls.
(§2) PDE5 IC50 Assay: 96-Well Microtiter Plate Format
(§3) Buffer A: 20 mM Tris-HCl, 5 mM MgCl2, pH 7.4
(§4) Buffer B: 2 mg/ml BSA in Buffer A (enzyme buffer)
cGMP substrate: Final concentration of 50 nM in assay
The amount of ^3H-labeled substrate added depends upon the specific activity of [^3H]cGMP, and it is diluted in Buffer A.
(§5) PDE enzyme: Prepared in Buffer B. The dilution factor is determined by enzyme activity.
SPA beads: 4 mg/ml suspension prepared in dH2O.
Stocks of standard and test compounds are prepared at 2 mM in 100% DMSO. Compounds are serially diluted in separate dilution plates using an 8-point ⅕ log dilution format such that the starting concentration in the assay is 2 μM for an initial IC50 screen. 27 μl of Buffer A are added to the wells of the assay plates. From the dilution plates, 3 μl of diluted compounds are delivered in duplicate or 3 μl of 100% DMSO (for positive and negative controls) are added. 30 μl of enzyme are added. For the negative control wells, Buffer B is substituted in place of the enzyme. 30 μl of labeled substrate are added to all wells.
After incubating for 60 minutes at room temperature, the reaction is stopped with the addition of 30 μl of the yttrium silicate beads. These beads are dense and require constant agitation while being added to the plate. The plates are sealed and shaken on a plate shaker for fifteen minutes to allow the beads to bind the GMP product.
After allowing the beads to settle for 30 minutes, plates are read on a NXT TopCount and data is analyzed in the Bioassay Solver application. Percent inhibition values are calculated using the means of the 0% and 100% controls on each plate. The estimates of the 4-parameters of the logistic, sigmoid dose-response model are then calculated using the well-level percent inhibition values for each compound. These estimates are used to calculate the concentration that corresponds to 50% inhibition.

Point of comparison: `C[C@@H]1CN(c2nc(Nc3ccncn3)c3c(n2)c(CN2CCN(C)CC2)nn3CCOCC(F)(F)F)CCN1` [Example 47, 5-[(3R)-3-Methylpiperazin-1-yl]-3-[(4-methylpiperazin-1-yl)methyl]-N-pyrimidin-4-yl-1-[2-(2,2,2-trifluoroethoxy)ethyl]-1H-pyrazolo[4,3-d]pyrimidin-7-amine trifluoroacetate], IC50 0.47 nM. Against it:
- CCN(C)c1nc(Nc2ccncn2)c2c(n1)c(CN1CCSCC1)nn2CCOCC(F)(F)F [Example 44, N^5-Ethyl-N^5-methyl-N^7-pyrimidin-4-yl-3-(thiomorpholin-4-ylmethyl)-1-[2-(2,2,2-trifluoroethoxy)ethy]-1H-pyrazolo[4,3-d]pyrimidine-5,7-diamine trifluoroacetate] — 1.7-fold higher, 0.79 nM
- C[C@@H]1CN(c2nc(Nc3ccncn3)c3c(n2)c(CN2CCS(=O)(=O)CC2)nn3CCOCC(F)(F)F)CCN1 [Example 49, 3-[(1,1-Dioxidothiomorpholin-4-yl)methyl]-5-[(3R)-3-methylpiperazin-1-yl]-N-pyrimidin-4-yl-1-[2-(2,2,2-trifluoroethoxy)ethyl]-1H-pyrazolo[4,3-d]pyrimidin-7-amine trifluoroacetate] — within 1.5-fold, 0.58 nM
- C[C@@H]1CN(c2nc(Nc3ccncn3)c3c(n2)c(CN2CCSCC2)nn3CCOCC(F)(F)F)CCN1 [Example 46, 5-[(3R)-3-methylpiperazin-1-yl]-N-pyrimidin-4-yl-3-(thiomorpholin-4-ylmethyl)-1-[2-(2,2,2-trifluoroethoxy)ethyl]-1H-pyrazolo[4,3-d]pyrimidin-7-amine trifluoroacetate] — 3.4-fold lower, 0.14 nM
- C[C@@H]1CN(c2nc(Nc3ccncn3)c3c(n2)c(CN2CCCCC2)nn3CCOCC(F)(F)F)CCN1 [Example 45, 5-[(3R)-3-Methylpiperazin-1-yl]-3-(piperidin-1-ylmethyl)-N-pyrimidin-4-yl-1-[2-(2,2,2-trifluoroethoxy)ethyl]-1H-pyrazolo[4,3-d]pyrimidin-7-amine trifluoroacetate] — 2.7-fold higher, 1.25 nM
- CCN(CC)Cc1nn(CCOCC(F)(F)F)c2c(Nc3ccncn3)nc(N(CC)CC)nc12 [Example 48, 3-[(Diethylamino)methyl]-N^5,N^5-diethyl-N^7-pyrimidin-4-yl-1-[2-(2,2,2-trifluoroethoxy)ethyl]-1H-pyrazolo[4,3-d]pyrimidine-5,7-diamine trifluoroacetate] — 16-fold higher, 7.39 nM
- C[C@@H]1CN(c2nc(Nc3ccncn3)c3c(n2)c(CN2CCOCC2)nn3CCOCC(F)(F)F)CCN1 [Example 42, 5-[(3R)-3-Methylpiperazin-1-yl]-3-(morpholin-4-ylmethyl)-N-pyrimidin-4-yl-1-[2-(2,2,2-trifluoroethoxy)ethyl]-1H-pyrazolo[4,3-d]pyrimidin-7-amine trifluoroacetate] — within 1.5-fold, 0.32 nM
- FC(F)(F)CNCc1nn(CCOCC(F)(F)F)c2c(Nc3ccncn3)nc(N3CCNCC3)nc12 [Example 50, 1-(2-(2,2,2-trifluoroethoxy)ethyl)-3-((2,2,2-trifluoroethylamino)methyl)-5-(piperazin-1-yl)-N-(pyrimidin-4-yl)-1H-pyrazolo[4,3-d]pyrimidin-7-amine trifluoroacetate] — 2.3-fold higher, 1.06 nM
- FC(F)(F)COCCn1nc(CN2CCOCC2)c2nc(N3CCNCC3)nc(Nc3ccncn3)c21 [Example 43, 3-(Morpholin-4-ylmethyl)-5-piperazin-1-yl-N-pyrimidin-4-yl-1-[2-(2,2,2-trifluoroethoxy)ethyl]-1H-Pyrazolo[4,3-d]pyrimidin-7-amine trifluoroacetate] — 2.2-fold lower, 0.21 nM
- FC(F)(F)COCCn1nc(CN2CCNCC2)c2nc(N3CCNCC3)nc(Nc3ccncn3)c21 [Example 41, 5-Piperazin-1-yl-3-(piperazin-1-ylmethyl)-N-pyrimidin-4-yl-1-[2-(2,2,2-trifluoroethoxy)ethyl]-1H-pyrazolo[4,3-d]pyrimidin-7-amine trifluoroacetate] — 3.8-fold higher, 1.8 nM

These compounds were tested against T1, human platelet PDE5 (assay: Method A: PDE-5 Inhibition Scintillation Proximity Assay (SPA) - Human Platelet). Conditions: cGMP substrate 500 nM, PDE5 isolated from human platelets.
Format: biochemical
Source text: Method A: PDE-5 Inhibition Scintillation Proximity Assay (SPA)—Human Platelet
as §1, with “platelets. The PDE5 enzyme can be isolated from platelets essentially by a modification of the method of Thompson, W J et al.; Biochemistry 18(23), 5228-5237, 1979, as described by Ballard S A et al.; J. Urology 159(6), 2164-2171, 1998.” for “platelets.”, “counting. […]” for “counting.”
as §2, §3, §4
cGMP substrate: Final concentration of 500 nM in assay
The amount of ^3H-labeled substrate added depends upon the specific activity of [^3H]cGMP, and it is diluted with a 10 mM stock of cold cGMP in Buffer A for a final substrate concentration of 500 nM in the assay.
as §5
SPA beads: 20 mg/ml suspension prepared in dH2O.
Stocks of standard and test compounds are prepared at 5 mM in 100% DMSO. Compounds are serially diluted in separate dilution plates using a 10-point ½ log dilution format. 2 μl of the compound dilutions are added in duplicate to the wells of the assay plate; 2 μl of 100% DMSO are added to designated control wells. 25 μl of Buffer A are added to all wells. 25 μl of Buffer B are added to the negative control wells, and 25 μl of enzyme are added to the remaining wells. 50 μl of substrate are added to each well. Plates are sealed and incubated for 60 minutes on a plate shaker at 30 C. 50 μl of SPA beads are added to stop the reaction. The plates are again sealed and shaken for 15 minutes to allow the beads to bind the GMP product. The beads are allowed to settle for 30 minutes and then read on a NXT TopCount. Data is analyzed with the ECADA application. In this analysis, % inhibition is calculated: (mean maximum−compound value/(mean maximum−mean minimum)×100. IC50s are determined from sigmoid dose-response curves of enzyme activity vs compound concentration.

Point of comparison: `CCOCCn1nc(CN(C)C(C)=O)c2nc(NC)nc(Nc3cc(C)ccn3)c21` [Example 14], IC50 5.5 nM. Against it:
- CCOCCn1nc(CNS(C)(=O)=O)c2nc(N(C)C)nc(Nc3cc(C)ccn3)c21 [Example 2, N-[5-dimethylamino-1-(2-ethoxyethyl)-7-(4-methylpyridin-2-ylamino)-1H-pyrazolo[4,3-d]pyrimidin-3-ylmethyl]methanesulfonamide] — 4.4-fold lower, 1.25 nM
- CCCN(Cc1nn(CCOCC)c2c(Nc3cc(C)ccn3)nc(N(C)C)nc12)C(C)=O [Example 39, N-[5-Dimethylamino-1-(2-ethoxyethyl)-7-(4-methylpyridin-2-ylamino)-1H-pyrazolo[4,3-d]pyrimidin-3-ylmethyl]-N-propylacetamide] — 3.6-fold lower, 1.53 nM
- CCNCc1nn(CCOCC)c2c(Nc3ccc(C)cn3)nc(N(C)C)nc12 [Example 26] — 1.6-fold lower, 3.4 nM
- CCNc1nc(Nc2cc(C)ccn2)c2c(n1)c(CNS(C)(=O)=O)nn2CCOCC [Example 3] — 5-fold lower, 1.1 nM

Source: patent publication US7569572B2, “Pyrazolo[4,3-D]pyrimidines” (Pfizer Inc, priority 2004, dated 2009)
